Test results taken from ChEMBL document CHEMBL4425084, “Development of Heat Shock Protein (Hsp90) Inhibitors To Combat Resistance to Tyrosine Kinase Inhibitors through Hsp90-Kinase Interactions” (J Med Chem, 2016).

Experiments:
[1] = tested on: PC-9; assay: Cytotoxicity against HGF-induced erlotinib-resistant human PC9 cells assessed as inhibition of cell growth after 72 hrs by MTT assay; format: functional, cell-based; conditions: PC-9, 72 h
[2] = Cytotoxicity against HGF-induced erlotinib-resistant human Ma1 cells assessed as inhibition of cell growth after 72 hrs by MTT assay; format: functional, cell-based
[3] = Cytotoxicity against human NB39 cells assessed as decrease in cell viability after 72 hrs by CellTiter-Glo luminescence assay; conditions: NB39, 72 h
[4] = Inhibition of E6a/b;A20 EML4-ALK (unknown origin) expressed in human NCI-H2228 cells assessed as decrease in cell viability after 72 hrs by CellTiter-Glo luminescence assay; conditions: NCI-H2228, 72 h
[5] = Inhibition of E13;A20 EML4-ALK variant (unknown origin) expressed in human NCI-H3122 cells assessed as decrease in cell viability after 72 hrs by CellTiter-Glo luminescence assay; format: cell-based; conditions: NCI-H3122, 72 h
[6] = tested on: A-375; assay: Cytotoxicity against human A375 cells assessed as decrease in cell viability after 72 hrs by CellTiter-Glo luminescence assay; format: functional, cell-based; conditions: A-375, 72 h
[7] = cells; conditions: Homo sapiens, BaF3, 24 h
[8] = tested on: A-375; assay: animal or person; conditions: Mus musculus, A-375, iv, read-out: TGI
Description: Antitumor activity against vemurafenib-resistant human A375 cells xenografted in mouse assessed as tumor growth inhibition at 150 mg/kg, iv dosed as weekly treatment in presence of selumetinib

[9] = biological target: Bcr/Abl fusion protein (Homo sapiens, UniProt P00519); assay: Inhibition of BCR-ABL (unknown origin) expressed in mouse BA/F3 cells assessed as decrease in cell viability after 48 hrs by trypan blue exclusion assay; format: cell-based
[10] = biological target: Bcr/Abl fusion protein (Homo sapiens, UniProt P00519, T315I); assay: Inhibition of imatinib-resistant BCR-ABL T315I mutant (unknown origin) expressed in mouse BA/F3 cells assessed as decrease in cell viability after 48 hrs by trypan blue exclusion assay; format: cell-based
[11] = biological target: Bcr/Abl fusion protein (Homo sapiens, UniProt P00519, E255K); assay: Inhibition of imatinib-resistant BCR-ABL E255K mutant (unknown origin) expressed in mouse BA/F3 cells assessed as decrease in cell viability after 48 hrs by trypan blue exclusion assay; format: cell-based
[12] = tested on: Mus musculus; assay: In vivo inhibition of BCR-ABL/T315I mutant expressed in bone marrow cells transplanted in mouse assessed as level of cells expressing gatekeeper mutation at 100 mg/kg, bid measured after 15 days; format: functional; set-up: scale not given: the % may be the effect or the level left
[13] = tested on: HCC827; assay: Cytotoxicity against gefitinib-resistant human HCC827 cells assessed as inhibition of cell proliferation by MTS assay; format: functional, cell-based
[14] = tested on: GIST430; assay: Cytotoxicity against imatinib-resistant human GIST430 cells assessed as decrease in cell viability after 7 days by alamar blue assay; format: functional, cell-based; conditions: GIST430, 168 h
[15] = tested on: GIST48; assay: Cytotoxicity against imatinib-resistant human GIST48 cells assessed as decrease in cell viability after 7 days by alamar blue assay; format: functional, cell-based; conditions: GIST48, 168 h
[16] = Toxicity in iv dosed NSCLC patient dosed weekly for 3 weeks on four week cycle during phase-1 clinical trial; format: organism-based; conditions: human, in vivo, 504 h
[17] = tested on: NCI-H3122; assay: Cytotoxicity against crizotinib-resistant human NCI-H3122 cells assessed as cell growth inhibition after 72 hrs by trypan blue exclusion assay; format: functional; conditions: NCI-H3122, 72 h
[18] = tested on: Mus musculus; assay: In vivo inhibition of BCR-ABL/T315I mutant expressed in bone marrow cells transplanted in mouse assessed as level of cells expressing gatekeeper mutation at 50 mg/kg once every 2 days measured after 28 days; format: functional; set-up: scale not given: the % may be the effect or the level left
[19] = Toxicity in human H3255 cells expressing L858R EGFR mutant xenografted in mouse administered ip 3 times per week; format: organism-based; conditions: in vivo
[20] = Toxicity in human H1650 cells expressing E746-A750 EGFR deletion mutant xenografted in mouse administered ip 3 times per week; format: organism-based; conditions: in vivo
[21] = Toxicity in human H1975 cells xenografted in mouse administered ip 3 times per week; format: organism-based; conditions: in vivo

CO[C@H]1/C=C\C=C(/C)C(=O)NC2=CC(=O)C(NCCN(C)C)=C(C[C@@H](C)C[C@H](OC)[C@H](O)[C@@H](C)/C=C(\C)[C@@H]1OC(N)=O)C2=O [ALVESPIMYCIN]
IC50 [1]: 10 to 30 nM
IC50 [2]: 10 to 30 nM

C[C@@H](Oc1cc(-c2cnn(C3CCNCC3)c2)cnc1N)c1c(Cl)ccc(F)c1Cl [CRIZOTINIB]
IC50 [3]: 240 nM
IC50 [4]: 202 nM
IC50 [5]: 300 nM

CC(C)c1cc(-c2n[nH]c(=O)n2-c2ccc3c(ccn3C)c2)c(O)cc1O [GANETESPIB]
IC50 [3]: 10 nM
IC50 [4]: 13 nM
IC50 [5]: 10 nM
IC50 [6]: 15 nM
IC50 [7]: 11 nM
inhibition in vivo at 150 mg/kg [8]: 84%

COC1=C2C[C@@H](C)C[C@H](OC)[C@H](O)[C@@H](C)/C=C(\C)[C@H](OC(N)=O)[C@@H](OC)/C=C\C=C(/C)C(=O)NC(=CC1=O)C2=O [GELDANAMYCIN]
IC50 [9]: 5000 nM
IC50 [10]: 1000 to 2000 nM
IC50 [11]: 1000 to 2000 nM

Cc1ccc(NC(=O)c2ccc(CN3CCN(C)CC3)cc2)cc1Nc1nccc(-c2cccnc2)n1 [IMATINIB]
Activity [12]: 81.5%

CCNC(=O)c1noc(-c2cc(C(C)C)c(O)cc2O)c1-c1ccc(CN2CCOCC2)cc1 [LUMINESPIB]
IC50 [13]: 7 nM

CC(C)c1cc(C(=O)N2Cc3ccc(CN4CCN(C)CC4)cc3C2)c(O)cc1O [ONALESPIB]
IC50 [14]: 34 nM
IC50 [15]: 55 nM
MTD [16]: 260 mg/m2

C=CCNc1c(O)cc2c(O)c1C[C@@H](C)C[C@H](OC)[C@H](O)[C@@H](C)/C=C(\C)[C@H](OC(N)=O)[C@@H](OC)/C=C\C=C(/C)C(=O)N2.Cl [RETASPIMYCIN HYDROCHLORIDE]
GI50 [17]: 76 nM
Activity [18]: 0.5%

C=CCNC1=C2C[C@@H](C)C[C@H](OC)[C@H](O)[C@@H](C)/C=C(\C)[C@H](OC(N)=O)[C@@H](OC)/C=C\C=C(/C)C(=O)NC(=CC1=O)C2=O [TANESPIMYCIN]
IC50 [9]: 5000 nM
IC50 [10]: 1000 to 2000 nM
IC50 [11]: 1000 to 2000 nM
MTD [19]: 75 mg/kg
MTD [20]: 75 mg/kg
MTD [21]: 75 mg/kg

CCCS(=O)(=O)Nc1ccc(F)c(C(=O)c2c[nH]c3ncc(-c4ccc(Cl)cc4)cc23)c1F [VEMURAFENIB]
IC50 [6]: 81 nM
